# Experimental data: US9469632B2, “6-substituted-3H-1,3-benzothiazol-2-one compounds as TARP-gamma 8 dependent AMPA receptor antagonists” (Eli Lilly and Company, priority 2014, dated 2016)
# Where “and” joins values, the source holds several entries; their conditions need not be identical. Identical values can stand only once.
# Legend:
# [1] = molecular target: T1, TARP γ8 dependent GluA1 flop receptors (Homo sapiens, UniProt P42261+Q8WXS5); test: FLIPR antagonist functional assay, GluA1 flop co-expressed with TARP γ8 in CHO-S cells; assay type: cell-based; details: glutamate 45 μM plus CTZ 20 μM, read-out: relative IC50, inhibition of glutamate plus CTZ activation of TARP γ8 dependent GluA1 flop receptors
# T1 construct: expressed in transfected cells; host or cells: CHO-S (Invitrogen), transient transfection
# T1 sequence (P42261 19-906): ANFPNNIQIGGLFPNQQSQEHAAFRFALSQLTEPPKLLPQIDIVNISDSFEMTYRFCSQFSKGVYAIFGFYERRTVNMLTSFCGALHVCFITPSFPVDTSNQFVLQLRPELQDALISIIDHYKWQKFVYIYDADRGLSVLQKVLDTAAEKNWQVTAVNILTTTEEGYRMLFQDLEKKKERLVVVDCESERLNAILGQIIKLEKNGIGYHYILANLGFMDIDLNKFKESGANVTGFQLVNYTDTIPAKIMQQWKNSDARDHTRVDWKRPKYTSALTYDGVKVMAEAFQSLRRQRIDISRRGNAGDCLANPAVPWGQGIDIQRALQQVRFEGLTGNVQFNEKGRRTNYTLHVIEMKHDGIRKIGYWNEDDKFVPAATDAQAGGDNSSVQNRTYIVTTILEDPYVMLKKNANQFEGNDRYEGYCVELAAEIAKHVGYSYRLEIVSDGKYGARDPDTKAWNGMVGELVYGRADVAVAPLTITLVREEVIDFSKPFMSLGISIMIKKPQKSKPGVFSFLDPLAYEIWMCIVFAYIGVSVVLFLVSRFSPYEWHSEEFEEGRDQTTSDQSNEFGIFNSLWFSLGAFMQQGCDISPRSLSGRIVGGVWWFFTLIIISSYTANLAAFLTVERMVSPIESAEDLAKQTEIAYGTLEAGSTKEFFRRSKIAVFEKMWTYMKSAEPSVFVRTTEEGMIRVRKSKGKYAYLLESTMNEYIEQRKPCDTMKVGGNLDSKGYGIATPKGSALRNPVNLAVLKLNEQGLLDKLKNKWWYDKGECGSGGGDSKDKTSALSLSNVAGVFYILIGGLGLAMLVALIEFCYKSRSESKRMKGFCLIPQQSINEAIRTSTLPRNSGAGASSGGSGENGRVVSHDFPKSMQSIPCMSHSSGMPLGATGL
# T1 sequence (Q8WXS5 whole entry): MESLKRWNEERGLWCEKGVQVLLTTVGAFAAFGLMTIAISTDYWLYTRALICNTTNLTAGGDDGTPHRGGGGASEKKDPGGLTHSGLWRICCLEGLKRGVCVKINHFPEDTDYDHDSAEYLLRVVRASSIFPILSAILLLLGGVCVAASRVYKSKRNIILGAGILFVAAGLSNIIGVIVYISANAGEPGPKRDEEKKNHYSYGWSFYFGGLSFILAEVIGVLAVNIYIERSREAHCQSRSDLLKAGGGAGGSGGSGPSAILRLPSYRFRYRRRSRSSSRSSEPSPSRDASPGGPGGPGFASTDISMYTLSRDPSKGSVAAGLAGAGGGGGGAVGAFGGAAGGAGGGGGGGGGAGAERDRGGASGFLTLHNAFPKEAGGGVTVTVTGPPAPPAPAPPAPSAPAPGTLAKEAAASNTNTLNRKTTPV
# Procedure: (§1) Briefly, CHO-S (Invitrogen) cells are grown in suspension in 50/50 custom media to a density of 1×10^7 cells/ml. (50/50 custom media is a low calcium media made as a 1:1 (v/v) mixture of CD CHO media (Gibco #10743) and a custom complete media. The custom complete media is made by adding 0.40 mg/L tropolone, 5.00 mg/L insulin, 20 mM HEPES, and 0.075% Pluronic® F68 to a custom basal media having the following formula: (values as mg/L unless otherwise specified) 11.01 anhydrous calcium chloride, 0.050 ferric nitrate-9H2O, 0.420 ferrous sulfate-7H2O, 28.64 anhydrous magnesium chloride, 48.84 anhydrous magnesium sulfate, 312.14 KCl, 5505.96 NaCl, 62.57 monobasic sodium phosphate, 71.28 anhydrous dibasic sodium phosphate, 0.432 zinc sulfate-7H2O, 10.0 ethanolamine HCl, 6000 D-glucose (dextrose), 0.210 DL lipoic acid thioctic, 0.081 putrescine 2 HCl, 4.78 sodium hypoxanthine, 220.24 sodium pyruvate, 0.730 thymidine, 8.90 L-alanine, 211.23 L-arginine HCl, 15.02 L-asparagine H2O, 13.31 L-aspartic acid, 62.67 cystine 2 HCl, 7.360 L-glutamic acid, 146.16 L-Glutamine, 30.0 gylicine, 42.04 L-histidine HCl 2 H2O, 105.11 L-isoluecine, 105.11 L-luecine, 146.16 L-lysine HCl, 30.03 L-methionine, 66.07 L-phenylalanine, 17.27 L-proline, 42.04 L-serine, 95.1 L-threonine, 16.02 L-typtophan, 104.11 L-tyrosine disodium salt, 94.1 L-valine, 8.99 choline chloride, 4.00 folic acid, 12.61 I inositol, 4.00 niacinamide, 4.00 pyridoxal HCl, 0.031 pyridoxine HCl, 0.400 riboflavin, 4.00 sodium pantothenate, 4.00 thiamine HCl, 0.680 vitamin B 12, and 2200 sodium bicarbonate.) Cells are centrifuged at 1000×g for […] and resuspended in fresh 50/50 custom media at 2×10^6 cells/ml. For batch transfection, 2 mg of total DNA(s) is used for each liter of cells. For GluA1-γ8 transfection of CHO-S cells, human GluA1 Qflop-Cacng8-pBudCE4.1 DNA (Qiagen) and human EAAT3 pAN104 DNA (Qiagen, a […]) are mixed in a ratio of 2:3. For GluA1-γ2 transfection of CHO-S cells, human GluA1 Qflop-Cacng2-pBudCE4.1 (Qiagen) is used. For GluA1 flip transfection of CHO-S cells, human GluA1 flip pcDNA3.1 DNA (Qiagen) is used. DNA(s) and FreeStyle™ MAX Reagent (Invitrogen cat#16447-500) are added to basal custom media (see above) in the proportions of 10 μg total DNA: 10 plFreeStyleTm MAX Reagent: 1 ml media, to form a DNA complex. […]
# (§2) Frozen transfected CHO-S cells expressing AMPA receptors are thawed and plated in Dulbecco's Modified Eagle Media (DMEM media) (Gibco, cat#11960) containing 5% dialyzed Fetal Bovine Serum (Gibco, cat#26400-036) and 20 mM HEPES at 50,000 cells per well in 384-well Poly-D-lysine coated plates (Becton Dickinson, cat#354663) and cultured overnight at 37° C. On the day of an experiment, two fluorescence dye loading buffers are prepared. […]
# [2] = molecular target: T2, TARP γ2 dependent GluA1 flop receptors (Homo sapiens, UniProt P42261+Q9Y698); test: FLIPR antagonist functional assay, GluA1 flop co-expressed with TARP γ2 in CHO-S cells; assay type: cell-based; details: glutamate 45 μM plus CTZ 20 μM, assay limit of 9260 nM
# T2 construct: expressed in transfected cells; host or cells: CHO-S (Invitrogen), transient transfection
# T2 sequence (P42261 19-906): as the sequence (P42261 19-906) above
# T2 sequence (Q9Y698 whole entry): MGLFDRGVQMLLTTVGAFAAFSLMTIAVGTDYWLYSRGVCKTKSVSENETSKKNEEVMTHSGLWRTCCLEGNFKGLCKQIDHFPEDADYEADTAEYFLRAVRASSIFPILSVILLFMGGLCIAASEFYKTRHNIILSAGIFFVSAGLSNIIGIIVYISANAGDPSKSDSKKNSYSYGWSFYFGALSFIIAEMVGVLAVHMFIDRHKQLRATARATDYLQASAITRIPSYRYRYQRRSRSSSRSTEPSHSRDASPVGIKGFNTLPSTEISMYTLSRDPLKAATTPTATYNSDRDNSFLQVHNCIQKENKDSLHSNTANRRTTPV
# Procedure: as §1, §2
# [3] = molecular target: T3, GluA1 flip isoform devoid of TARP (Homo sapiens, UniProt P42261); test: FLIPR antagonist functional assay, GluA1 flip expressed without TARP in CHO-S cells; assay type: cell-based; details: glutamate 45 μM plus CTZ 20 μM, assay limit of 9260 nM
# T3 construct: expressed in transfected cells; host or cells: CHO-S (Invitrogen), transient transfection
# T3 sequence (P42261 19-906 isoform P42261-2 limits assumed): as the sequence (P42261 19-906) above, with N740G, N750S, L754V, N760S, G772K, G773D, G774S, D775G counted along it
# Procedure: as §1, §2
# [4] = tested on: formalin induced pain; test: Manual formalin induced pain model; assay type: in vivo; details: mice, p.o.
# Procedure: The manual formalin induced pain model is well known for screening compounds for analgesic properties (Mogil J. S. et al., Heritability of nociception I: Responses of 11 inbred mouse strains on 12 measures of nociception. Pain 80 (1999) 67-82). The assay is performed in Plexiglas® boxes approx. 10 cm×10 cm×10 cm in size. A minor placed at the back of the cage allows the unhindered observation of the formalin injected paw. Non-fasted male mice (Harlan (HSD) CD1-Icr) are placed individually in the cubicles at least 60 min. prior to the experiment. All testing is conducted between 08:00 and 16:00 hr. and the testing room temperature is maintained at 21-23° C. […] Formalin (20 uL of a 5% solution in 0.9% saline) is injected subcutaneously into the plantar surface of the left hind paw with a 27 gauge needle. Observation starts immediately after the formalin injection. Formalin induced pain is quantified by recording the number of seconds each licking event lasts in 5 min intervals. The pain scoring is measured for 60 min. after the formalin injection. Two phases of pain behavior are observed as previously described (Wheeler-Aceto, H., Porreca, F. and Cowan, A., The rat paw formalin test: comparison of noxious agents, Pain 40 (1990) 229-238). The early phase starts immediately after the formalin injection and lasts approximately 5 min., followed by the late phase that starts between minutes 10-15 with a maximum response typically observed around 25-40 min after the formalin injection. After the 60 min. observation period, animals are sacrificed with CO2 followed by cervical dislocation. Of the different scoring parameters reported for the formalin test, the total time spent licking and biting the injected paw is considered to be most relevant. (Abbott et al., The formalin test: scoring properties of the first and second phases of the pain response in rats, Pain 60 (1995) 91-102; Coderre et al., The formalin test: a validation of the weighted-scores method of the behavioral pain rating, Pain 54 (1993) 43-50).) The early phase score is the sum of time spent licking (seconds) from time 0 to 5 min. The late phase score is obtained by adding the total number of seconds spent licking from minute 15 to min 55 of the observation period. Data are presented as means with standard errors of means (±SEM). Data are evaluated by one-way analysis of variance (ANOVA) and the appropriate contrasts analyzed by Dunnett “t” test for two sided comparisons. Differences are considered to be significant if the P-value is less than 0.05. (Abbott, supra.; Coderre, supra.; and Wheeler-Aceto, supra.)
Compound,IC50 [1] [µM],IC50 [2] [µM],IC50 [3] [µM],Percent reversal of Late Phase Licking ([4]; 1 mg/Kg) [%],Percent reversal of Late Phase Licking ([4]; 3 mg/Kg) [%],Percent reversal of Late Phase Licking ([4]; 10 mg/Kg) [%],Percent reversal of Late Phase Licking ([4]; 30 mg/Kg) [%],Percent reversal of Late Phase Licking ([4]; 60 mg/Kg) [%],"Percent reversal of Late Phase Licking ([4]; positive control 80 mg/Kg Tramadol, one value per experiment (Examples 3, 27, 30, 55))"
"CC(c1ccc2[nH]c(=O)sc2c1)c1ccn(-c2ccc(N3CCC(O)CC3)cn2)n1 (single isomer, unassigned) [Example 3, 6-(1-(1-(5-(4-hydroxypiperidin-1-yl)pyridin-2-yl)-1H-pyrazol-3-yl)ethyl)benzo[d]thiazol-2(3H)-one]",0.0911 ± 0.0481,> 9.26,> 9.26,32.3,43.8,66.2,,,
"C[C@@H](c1ccc2[nH]c(=O)sc2c1)c1ccn(-c2ccc(CCO)cn2)n1 (single isomer, unassigned) [Example 27]",0.0616 ± 0.0235,> 9.26,> 9.26,,,24.27,57.15,62.14,
"CC(c1ccc2[nH]c(=O)sc2c1)c1ccn(-c2ccc(CCC(C)(C)O)cn2)n1 (single isomer, unassigned) [Example 30]",,,,,8.88,11.77,47.77,62.14,
"CC(c1ccc2[nH]c(=O)sc2c1)c1csc(-c2ccccn2)n1 (single isomer, unassigned) [Example 53, 6-[1-(2-pyridin-2-yl-thiazol-4-yl)-ethyl]-3H-benzothiazol-2-one]",0.0656 ± 0.0149,> 9.26,> 9.26,,,,,,
"CC(=O)c1ccc(-c2csc(C(C)c3ccc4[nH]c(=O)sc4c3)n2)nc1 (single isomer, unassigned) [Example 54, 6-[1-[4-(5-acetyl-2-pyridyl)thiazol-2-yl]ethyl]-3H-1,3-benzothiazol-2-one]",0.0826 ± 0.0562,> 9.26,> 9.26,,,,,,
"CC(O)COCc1ccc(-n2ccc(C(C)c3ccc4[nH]c(=O)sc4c3)n2)nc1 (single isomer, unassigned) [Example 55, 6-[1-[1-[5-(2-hydroxypropoxymethyl)-2-pyridyl]pyrazol-3-yl]ethyl]-3H-1,3-benzothiazol-2-one]",,,,,25.64,31.08,63.47,,
"COc1cccc(C2(O)CCCCC2CN(C)C)c1 (centres unmarked) [Tramadol, tramadol, reference compound]",,,,,,,,,94.7% and 86.97% and 57.96% and 81.84%
